# Square brackets hold non-standard residues; d marks the D form. Ends that are not written are not given here. Peptide text beside a SMILES is read from it.
# Biological target: T1, streptavidin (Streptomyces avidinii, UniProt P22629)
# T1 construct: purchased GE Healthcare (Little Chalfont, UK)
# Test: Cy5-streptavidin binding on HotSpot discovery array, 5-mer L-peptide library
# Settings: 5-mer L-peptide library array, Cy5-streptavidin; from average of three arrays
# In short: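 Array of 2,476,099 5-mer peptides (19 amino acids, no cysteine) with Gly-Ser linkers, probed overnight at 4 °C with 0.5 µg/ml Cy5-streptavidin in Tris pH 7.4 buffer containing casein or BSA plus Tween-20. Cy5 fluorescence read at 635 nm; peptides selected by signal-to-background >4 across three arrays.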
# T1 sequence (P22629 25-183): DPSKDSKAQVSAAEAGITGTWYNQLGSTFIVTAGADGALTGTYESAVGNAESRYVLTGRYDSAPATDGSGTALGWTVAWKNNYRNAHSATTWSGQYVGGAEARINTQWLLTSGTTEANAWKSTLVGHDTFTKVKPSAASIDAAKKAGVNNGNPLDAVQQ
row,Molecule,S/B (signal to background ratio)
1,LVHPM,31.0
2,YHPQN,176.5
3,QWHPQ,173.7
4,EVHPQ,44.3
5,LYHPQ,211.9
6,WHPQS,129.8
7,HHPMF,19.8
8,GWHPQ,190.5
9,VFHPM,53.0
10,FHPQY,56.4
11,NWHPQ,184.8
12,WHPQN,176.6
13,RQHPM,55.1
14,LHPQM,29.4
15,IHPQN,128.3
16,ANHPM,47.0
17,RTHPQ,125.7
18,RHPQD,36.1
19,WHPQI,41.5
20,QMHPQ,124.9
21,HPQFW,53.0
22,YHHPQ,183.0
23,VKHPM,19.5
24,VYHPQ,168.1
25,FIHPQ,152.7

# Same assay, conditions: 5-mer L-peptide library array, Cy5-streptavidin; from the average of three arrays
row,Molecule,S/B (signal to background ratio)
1,HGHPM,69.3
2,MWHPM,86.7
3,GIHPQ,100.2
4,SKHPQ,66.3
5,KGHPQ,65.1
6,HPQFH,64.4
7,NQHPQ,107.5
8,VHPQS,73.9
9,THPMA,67.4
10,IRHPM,63.6
11,VLHPQ,115.6
12,FNHPM,96.1
13,SRHPM,57.8

# Same assay, conditions: 5-mer L-peptide library, from the average of three arrays
row,Molecule,S/B (signal to background ratio)
1,GLGYH [L-amino acid 5-mer array peptide],4.6
2,MHPMW,4.3
3,AHPQP,4.1
4,EHPMY,4.5
5,HPMQS,4.9
6,HPQLY,4.1
7,HGFPT,4.2
8,WHPMW,4.9

# Same assay, conditions: average of three arrays, L-peptide 5-mer library
row,Molecule,S/B (signal to background ratio)
1,GLGYH [L-amino acid 5-mer array peptide],4.6
2,HGFPT,4.2

# Same assay, conditions: signal to background ratio; 5-mer L-peptide library array, Cy5-streptavidin
row,Molecule,S/B
1,VHPMF,9.9
2,WHPMK,14.5
3,HPMQN,8.8
4,HPQKY,5.5
5,FLHHP,5.9
6,KHPMN,5.9
7,AHPQD,10.2
8,HPMFL,5.4

# Biological target: T1, streptavidin
# Test: SPR analysis of peptide binding to immobilized streptavidin (Biacore X100)
# Settings: SPR Kd versus EWVHPQFEQKAK
# Method: SPR analysis of peptide binding to streptavidin was performed with streptavidin immobilized on a chip and peptides in solution (see Materials and Methods).
# Surface Plasmon Resonance (SPR) experiments were performed using a Biacore X100 instrument (GE Healthcare). 60 µl of 100 µg/ml streptavidin in 10 mM Na-acetate (pH 5.0) was immobilized to flow cell 2 (Fc2) of a sensor chip CM5 (GE Healthcare) using the Amine Coupling Kit (GE Healthcare) at 20 °C for 6 min. Peptide stock solutions were prepared at 5 or 10 mM in H2O and diluted in HBS-EP+ (GE Healthcare) buffer. Peptide binding was performed in a multiple kinetics mode using HBS-EP+ as a running buffer and 0.2 M NaCl, 10 mM NaOH, or 10 mM HCl-glycine (pH 1.7) as the regeneration buffer. Binding kinetics parameters were calculated using Biacore X100 software.
row,Molecule,fold improvement of Kd over the HPQ peptide also developed in this study
1,AFPDYLAEYHGG-NH2 [NH2-AFPDYLAEYHGG-amide],100 fold

# Same assay, conditions: SPR Kd versus Strep-tag II HPQ
row,Molecule,fold improvement of Kd over Strep-tag II HPQ
1,AFPDYLAEYHGG-NH2 [NH2-AFPDYLAEYHGG-amide],"1,000 fold"

# Same assay, conditions: SPR sensorgrams, immobilized streptavidin
row,Molecule,type of SPR binding kinetics
1,"SAWSHPQFEK [NH2-SAWSHPQFEK-COOH, reference compound]",fast on/fast off
2,H-GNSFDDWLASKG-NH2,irreversible binding kinetics
3,EWVHPQFEQKAK-NH2 [NH2-EWVHPQFEQKAK-amide],fast on/fast off
4,NC(=O)CC[C@@H]1NC(=O)[C@H](Cc2c[nH]c3ccccc23)NC(=O)[C@H]2CCCN2C(=O)[C@H](CCC(N)=O)NC(=O)[C@H](CC(N)=O)NC1=O [NQpWQ (head-to-tail cyclic)] (cyclo(NQ[dP]WQ)),fast on/fast off

# Same assay, conditions: SPR, streptavidin amine-coupled to CM5 chip, peptides in HBS-EP+; steady-state affinity for fast on/fast off peptides, otherwise 1:1 binding model
row,Molecule,equilibrium dissociation constant (Kd)
1,H-GNSFDDWLASKG-NH2,irreversible binding

# Same assay, conditions: peptide concentrations of ≤2 mM
row,Molecule,binding in SPR
1,NC(=O)CC[C@H](NC(=O)[C@H](Cc1c[nH]c2ccccc12)NC(=O)[C@H]1CCCN1C(=O)[C@H](CCC(N)=O)NC(=O)[C@@H](N)CC(N)=O)C(=O)O [NH2-NQpWQ-COOH] (H-NQ[dP]WQ-OH),no measurable binding

# Biological target: T1, streptavidin
# Test: Cy5-streptavidin binding on cyclic discovery array, paired cyclic/linear 5-mer L/D-peptides
# Settings: Cy5-SA, three independent replicates on the same array, cyclic vs linear features
# Description: To identify cyclic peptide binders to streptavidin, Cy5-SA was bound to an array library of 388,962 5-mer L/D-peptides. The pentameric peptides were composed of a 4-mer peptide synthesized with a combination of uncharged L- and D-amino acids and a γ-Glu: this residue enabled synthesis of both head-to-tail cyclic and linear peptides, respectively, for each peptide through either allyl ester or t-butyl ester C-terminal protection (see Materials and Methods for amino acid composition and cyclization protocol). The paired cyclic and linear array features were spatially positioned side-by-side to control for potential variations in cyclization yield for each peptide. The fluorescence signal intensities across three independent replicates on the same array were compared and the ratio cyclic to linear peptide of signal intensities was compared.
# The combined cyclic and linear peptide libraries were synthesized starting with either the allyl ester (OAll) or t-butyl ester, respectively, of N-(2-nitrophenyl)propoxycarbonyl (NPPOC)-protected glutamate (γ-Glu) linked to the array surface through the carboxylic acid side chain. […]
# Cy5 fluorescence intensity of the arrays was measured with an MS200 scanner (Roche NimbleGen, Madison, WI) at resolution 2 µm, wavelength 635 nm, gain 25%, and laser intensity 100%. […]
row,Molecule,fluorescence signal intensity on cyclic discovery array
1,NC(=O)CC[C@@H]1NC(=O)[C@H](Cc2c[nH]c3ccccc23)NC(=O)[C@H]2CCCN2C(=O)[C@H](CCC(N)=O)NC(=O)[C@H](CC(N)=O)NC1=O [NQpWQ (head-to-tail cyclic)] (cyclo(NQ[dP]WQ)),highest fluorescence signal intensity

# Source: article PMC5608804, “Stepwise Evolution Improves Identification of Diverse Peptides Binding to a Protein Target” (Scientific Reports, 2017)
